For `CCCn1c(=O)c(N)nc2ccccc21`, the melting point is 191 to 192 °C. Under `Cc1ccc(C(=O)N[C@H]2CC[C@H](O)CC2)c(Nc2ccc3[nH]ncc3c2)n1` stands over 280 °C; under `CCOC(=O)c1c(C2CCNCC2)[nH]c(-c2cccc(C(F)(F)F)c2)c1-c1ccncc1`, 233 to 235 °C.

`CCOc1ccc(-c2nc(C(O)c3ccc(OC)c(OC)c3)cs2)cc1OCC` (stereo unspecified) displayed a melting point of 122 to 123 °C.

The compound `CCCn1c(=O)c2[nH]c(C3CCCC3)nc2n(CCc2ccc(NC(=O)CC)cc2)c1=O` yielded a melting point of over 270 °C.

With `O=C(O)CCc1ccc(CCNC(=S)Cc2ccccc2)cc1`, the melting point was 210 to 212 °C.

On to `COc1ccc(/C=N/Nc2cc(=O)[nH]c3cc(Cl)ccc23)cc1OC1CCCC1`, for which the melting point fell in the range of 210 to 212 °C. The compound `COC(=O)C1C(Sc2ccccc2)CC2CCC1N2C` (stereo unspecified) returned a melting point of 55 to 57 °C. In the case of `COC(=O)CCc1cc(C(=O)c2ccccc2Cl)c(N)s1`, the melting point was in the range of 89 to 90 °C.

In turn, `O=C(CN1CS(=O)CC1=O)N1CCN(C(c2ccccc2)c2ccccc2)CC1` (stereo unspecified) registered a melting point of 225 to 226 °C. Under `COc1cc(/C=C/C(=O)Nc2ccccc2C(=O)O)ccc1OC1CCCCC1` stands 90 to 92 °C. In the case of `Clc1ccc(C2=Nc3cccnc3Nc3ccccc32)cc1` it was 203 to 204 °C; in that of `O=C(O)C1(Cn2cnnn2)CCCC1`, 192 to 196 °C; in that of `N#Cc1cnc2c(c1)[nH]c(=O)n2[C@H]1CC[C@H](O)CC1`, 274 to 275 °C. For `COC(=O)C(Sc1ccc(Cl)cc1)c1ccc(Oc2ccccc2)cc1` (stereo unspecified), the melting point was 66 to 67.5 °C. Under `CCc1cc(C)cc(CC)c1C1C(=O)CC(CC(C)S(=O)CC)CC1=O` (stereo unspecified) stands 58 to 61 °C. Under `Cc1nc(-c2ccc(-c3cscn3)cc2)c(-c2ccc(S(N)(=O)=O)c(F)c2)o1` stands 116 to 118 °C. In the case of `CC1(C)OC(=O)C(c2ccc3sccc3c2)O1` (single isomer, unassigned; (-)) it was 116 to 117 °C.

Consider `COC(=O)c1nc2n(n1)-c1ccccc1N(c1cccc(C(F)(F)F)c1)C2`, for which the melting point lay within 204 to 206 °C. Under `CCc1cc2ccccc2c(=O)o1` stands 69 °C; under `COc1ccccc1C1(c2ccccc2OC)CC1`, 146 to 149 °C; under `CCOC(=O)C(=NNc1ccc(C)cc1C)C(C)=O`, 106 to 108 °C. In turn, `CCOCc1cnc2c(N)cccc2c1Cl` displayed a melting point of 90 to 93 °C. In the case of `O=C1C(=C2CC=Cc3ccccc32)CCCC1=C1CC=Cc2ccccc21` it was 212 to 213 °C; in that of `CS(=O)(=O)Cc1ccc(C(=O)c2ccc(Cl)cc2)cc1`, 164 to 166 °C; in that of `Cc1c(Br)cc(C(C)(C)C)c(O)c1C(=O)O`, 54 to 58 °C. With `Cc1cccc(C=NN2C(=O)CN(C(c3ccccc3)c3ccccc3)CC2=O)n1`, the melting point was 161 to 163 °C. In the case of `O=[N+]([O-])c1cnccc1NCCN1CCC(Nc2nc3ccccc3n2Cc2ccc(CO)o2)CC1` it was 191 °C; in that of `CCCCc1nc(N)cc(=O)[nH]1`, 242 to 245 °C. In the case of `CN(C)C=Nc1ncc(S(=O)(=O)NC(C)(C)C)c(O)n1` it was 258 to 261 °C.

Compound `CCOC(=O)c1c(N)cc([N+](=O)[O-])cc1CC` had a melting point of 68 to 70 °C. `CC1CCOCc2nc3c(N)nc4cc(Br)ccc4c3n21` (stereo unspecified) returned a melting point of 247 to 248 °C. In the case of `N#Cc1cccc(C2=NOC3(C2)OC(=O)c2ccccc23)c1` (stereo unspecified) it was 134 to 137 °C. `CC(=O)N(O)Cc1ccc(OCc2ccccc2)cc1` showed a melting point of 119 to 120 °C. Take `CCc1[nH]n(C2CCCC2)c2nc(-c3ccc(OCCCN(C)C)cc3)nc(=O)c1-2`: the melting point fell in the range of 175 to 178 °C.

`Cc1cn(-c2ccc(NC(=O)c3ccc(Cl)c(C#Cc4ccc(NC(C)C)nn4)c3)cc2C(F)(F)F)cn1` displayed a melting point of 133 to 135 °C.

The values above are taken from a melting point compilation (Tetko et al.; mined from patent text by program, amines drawn as free bases though some values may be those of a salt).
